Results published in US5686485A, “Physiologically active EI-1941 compounds” (Kyowa Hakko Kogyo Co., Ltd., priority 1995, dated 1997).

Experiments:
[1] = test system: production of IL-1β by human monocyte-derived THP-1 cells; experiment: Inhibitory activity against the production of IL-1β by human monocyte-derived THP-1 cells (LPS-stimulated, ELISA); type: cell-based; settings: THP-1 cells differentiated with PMA 30 nM, 65 h, LPS 25 μg/ml, 4 hours, serum-free RPMI1640, test compound 0.05-50 μg/ml, read-out: IC50 (50% inhibitory concentration), IL-1 production inhibition
Experimental: The inhibitory activity of EI-1941 compounds against the production of IL-1β by human monocyte-derived THP-1 cells (ATCC No. TIB 202) was examined in the following manner. The amount of IL-1β was determined by the ELISA method.
THP-1 cells were suspended in RPMI1640 medium (Nissui Pharmaceutical Co., Ltd.) containing 10% inactivated fetal calf serum at a concentration of 1×10^5 cells/ml. The cell suspension was put into wells of a 24-well plate in an amount of 1 ml/well. Phorbol 12-myristate 13-acetate (PMA, final concentration: 30 nM) was added to the wells, followed by incubation in a 5% CO2 -incubator at 37° C. for 65 hours to differentiate the cells into macrophage.
Then, the plate was gently washed with serum-free RPMI1640 medium to remove the cells which were not adhered to the wells, and the residue was cultured for 4 hours in serum-free RPMI1640 medium (1 ml/well) containing lipopolysaccharide (LPS, final concentration: 25 μg/ml) and a test compound (final concentration: 0.05-50 μg/ml).
After the completion of culturing, the amount of IL-1β released into the culture supernatant was determined by using an IL-1β determination kit (Amersham Corp.).
The IL-1 production inhibition rate was calculated according to the following equation to obtain IC50 (50% inhibitory concentration).
IL-1 production inhibition rate (%)=(A-B)/(A-C)×100
A: Amount of IL-1 produced when only LPS is added […]

Solubility = type: physicochemical; settings: in methanol and acetonitrile

Row | SMILES | IC50 [1] [nM] | Solubility (Solubility)
1 | CCCC1CC2=C(C(O)O1)C(O)C1OC1C2=O (centres unmarked) [EI-1941-1] | 1000 | Readily soluble in methanol and acetonitrile
2 | CCCC1CC2=C(C(=O)O1)C(O)C1OC1C2=O (centres unmarked) [EI-1941-2] | 2200 | Readily soluble in methanol and acetonitrile
3 | CCCC1CC2=C(C(=O)O1)C(O)C(O)CC2=O (centres unmarked) [EI-1941-3] |  | Readily soluble in methanol and acetonitrile
